Results published in patent US8623862B2, “Derivatives of N-[(1H-pyrazol-1-yl)aryl]-1H-indole or 1H-indazole-3-carboxamide, preparation thereof and applications thereof in therapeutics” (Sanofi, priority 2011, dated 2014).
Where two headings read alike, the source gives them in different places.

System: platelet aggregation
Test: Inhibition of platelet aggregation in vitro (rat blood);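 note: aggregation induced by ADP added as 4 µL of a 250 µM solution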
Assay type: cell-based
Details: read-out: Inhibition of platelet aggregation in vitro (rat blood);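 note: aggregation induced by ADP added as 4 µL of a 250 µM solution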
Procedure: The measurements of platelet aggregation are performed at 37° C. in glass tubes (Chrono-Log—Kordia aggregometer).
Inhibition of Platelet Aggregation In Vitro (Rat Blood)
The blood is taken from male rats of the Sprague-Dawley strain, weighing 250-300 g.
The platelet-rich plasma (PRP) is obtained by centrifugation of the blood at 300 g for 5 minutes, and the measurements of platelet aggregation are performed as described above.
The results are calculated using the area under the curve of absorbance measured for 6 minutes, and expressed as percentage inhibition.

[1] = rat platelet-rich plasma, ADP-induced aggregation, area under the curve of absorbance for 6 minutes
[2] = 0.1 h, rat platelet-rich plasma, ADP-induced aggregation, area under the curve of absorbance for 6 minutes

IC50 (rat blood, in vitro) | Structure (SMILES) | IC50 [1] | other results
490 nM | CCCC(=O)c1cnn(-c2ccc(NC(=O)c3cn(CC(=O)N4Cc5cnn(C)c5C4)c4ccc(Cl)cc34)cc2)c1C [Compound 174] |  | 
250 nM | CCCCN1CCN(C(=O)Cn2cc(C(=O)Nc3ccc(-n4ncc(C(=O)CCC)c4C)cc3)c3cc(Cl)ccc32)CC1 [Compound 151] |  | 
340 nM | CCCC(=O)c1cnn(-c2ccc(NC(=O)c3cn(CC(=O)N4CCN(CCOC)CC4)c4cc(F)c(Cl)cc34)cc2)c1C [Compound 158] |  | 
3990 nM | CCCC(=O)c1cnn(-c2ccc(NC(=O)c3cn(CC(=O)N(C)CCN(C)C)c4cc(C)c(C)cc34)cc2)c1C [Compound 110] |  | 
270 nM | CCCC(=O)c1cnn(-c2ccc(NC(=O)c3cn(CC(=O)N4CCC(N(C)C)C4)c4ccc(C)cc34)cc2)c1C (stereo not shown) [Compound 120] |  | 
650 nM | CCCC(=O)c1cnn(-c2ccc(NC(=O)c3cn(CC(=O)N4CCN(C5CCC5)CC4)c4ccc(Cl)cc34)cc2)c1C [Compound 201] |  | 
180 nM | CCCC(=O)c1cnn(-c2ccc(NC(=O)c3cn(CC(=O)N4CCN(C(C)(C)CO)CC4)c4ccc(Cl)cc34)cc2)c1C [Compound 181] |  | 
450 nM | CCCC(=O)c1cnn(-c2ccc(NC(=O)c3cn(CC(=O)N4CCN(C5CC5)CC4)c4ccc(C)cc34)cc2)c1C [Compound 122] |  | 
290 nM | CCCC(=O)c1cnn(-c2ccc(NC(=O)c3cn(CC(=O)N4Cc5c[nH]nc5C4)c4ccc(Cl)cc34)cc2)c1C [Compound 175] |  | 
190 nM | CCCC(=O)c1cnn(-c2ccc(NC(=O)c3cn(CC(=O)N4CCN(CCOCCO)CC4)c4ccc(Cl)cc34)cc2)c1C [Compound 144] |  | 
640 nM | CCCC(=O)c1cnn(-c2ccc(NC(=O)c3cn(CC(=O)N4CCCCC4CN4CCCC4)c4ccc(C)cc34)cc2)c1C (stereo not shown) [Compound 141] |  | 
290 nM | CCCC(=O)c1cnn(-c2ccc(NC(=O)c3cn(CC(=O)N4CCN(CCC(=O)OCC)CC4)c4ccc(Cl)cc34)cc2)c1C [Compound 153] |  | 
240 nM | CCCC(=O)c1cnn(-c2ccc(NC(=O)c3cn(CC(=O)N4CCN(CCN(C)C)CC4)c4ccc(Cl)cc34)cc2)c1C [Compound 150] |  | 
330 nM | CCCC(=O)c1cnn(-c2ccc(NC(=O)c3cn(CC(=O)N4CCn5ccnc5C4)c4ccc(Cl)cc34)cc2)c1C [Compound 172] |  | 
290 nM | CCCC(=O)c1cnn(-c2ccc(NC(=O)c3cn(CC(=O)N4CCN(CC(=O)NC)CC4)c4ccc(Cl)cc34)cc2)c1C [Compound 163] |  | 
580 nM | CCCC(=O)c1cnn(-c2ccc(NC(=O)c3cn(CC(=O)N4CCCC(N(C)C)C4)c4ccc(C)cc34)cc2)c1C (stereo not shown) [Compound 125] |  | 
500 nM | CCCC(=O)c1cnn(-c2ccc(NC(=O)c3cn(CC(=O)N4CCN(CC)CC4)c4ccc(C)cc34)cc2)c1C [Compound 117] |  | 
230 nM | CCCC(=O)c1cnn(-c2ccc(NC(=O)c3cn(CC(=O)N4CCN5C(=O)CCC5C4)c4ccc(Cl)cc34)cc2)c1C (stereo not shown) [Compound 183] |  | 

Further lines, the compound ahead of its results:

Structure (SMILES) | IC50 (rat blood, in vitro) | IC50 [1] | other results
CCCC(=O)c1cnn(-c2ccc(NC(=O)c3cn(CC(=O)O)c4cc(C)ccc34)cc2)c1C [Compound 8] |  | 63000 nM | 
CCCC(=O)c1cnn(-c2ccc(NC(=O)c3cn(CC(=O)N4CCC(CO)CC4)c4ccc(Cl)cc34)nn2)c1C [Compound 56] |  | 300 nM | 
CCCC(=O)c1cnn(-c2ccc(NC(=O)c3cn(CC(=O)N4CCNCC4CO)c4ccc(C)cc34)cc2)c1C (stereo not shown) [Compound 254] |  | 190 nM | 
CCCC(=O)c1cnn(-c2ccc(NC(=O)c3cn(CC(=O)N4CCN(C(C)C)CC4)c4ccc(Cl)cc34)nn2)c1C [Compound 54] |  | 110 nM | 
CCCC(=O)c1cnn(-c2ccc(NC(=O)c3cn(CC(=O)N(C)CC4CCOC4)c4ccc(Cl)cc34)nn2)c1C (stereo not shown) [Compound 91] |  | 120 nM | 
CCCC(=O)c1cnn(-c2ccc(NC(=O)c3cn(CC(=O)N4CCC(N5CCOCC5)CC4)c4ccc(Cl)cc34)nn2)c1C [Compound 65] |  | 120 nM | 
CCCC(=O)c1cnn(-c2ccc(NC(=O)c3cn(CC(=O)N(C)CCO)c4ccc(Cl)cc34)nn2)c1C [Compound 38] |  | 70 nM | 
CCCC(=O)c1cnn(-c2ccc(NC(=O)c3cn(CC(=O)N4CCCN(C)CC4)c4ccc(Cl)cc34)nn2)c1C [Compound 99] |  | 110 nM | 
CCCC(=O)c1cnn(-c2ccc(NC(=O)c3cn(CC(=O)NCc4n[nH]c(C)n4)c4ccc(Cl)cc34)nn2)c1C [Compound 74] |  | 120 nM | 
CCCC(=O)c1cnn(-c2ccc(NC(=O)c3cn(CC(=O)O)c4cc(C)c(Br)cc34)cc2)c1C [Compound 20] |  | 3900 nM | 
CCCC(=O)c1cnn(-c2ccc(NC(=O)c3cn(CC(=O)N(C)Cc4ccco4)c4ccc(Cl)cc34)nn2)c1C [Compound 62] |  | 150 nM | 
CCCC(=O)c1cnn(-c2ccc(NC(=O)c3cn(CC(=O)N4CCN(C5CCS(=O)(=O)C5)CC4)c4ccc(Cl)cc34)nn2)c1C (stereo not shown) [Compound 73] |  | 50 nM | 
CCCC(=O)c1cnn(-c2ccc(NC(=O)c3cn(CC(=O)O)c4cc(C)c(Cl)cc34)cc2)c1C [Compound 4, Sodium (3-{[4-(4-butyryl-5-methyl-1H-pyrazol-1-yl)phenyl]carbamoyl}-5-chloro-6-methyl-1H-indol-1-yl)acetate] |  |  | IC50 [2]: 3300 nM
CCCC(=O)c1cnn(-c2ccc(NC(=O)c3cn(CC(=O)N4CCC(N)CC4)c4ccc(C)cc34)cc2)c1C [Compound 252] |  | 400 nM | 
CCCC(=O)c1cnn(-c2ccc(NC(=O)c3cn(CC(=O)O)c4ccc(OC)cc34)cc2)c1C [Compound 12] |  | 17000 nM | 
CCCC(=O)c1cnn(-c2ccc(NC(=O)c3cn(CC(=O)NC4CCCN(C)C4)c4ccc(C)cc34)cc2)c1C (stereo not shown) [Compound 267] |  |  | IC50 [2]: 450 nM
CCCC(=O)c1cnn(-c2ccc(NC(=O)c3cn(CC(=O)N4CCN(c5ccc(F)cc5)CC4)c4ccc(Cl)cc34)nn2)c1C [Compound 45] |  | 420 nM | 
CCCC(=O)c1cnn(-c2ccc(NC(=O)c3cn(CC(=O)N4CCCC(NC)C4)c4ccc(C)cc34)cc2)c1C (stereo not shown) [Compound 251] |  | 540 nM | 
CCCC(=O)c1cnn(-c2ccc(NC(=O)c3cn(CC(=O)N4CCNC(C)C4)c4ccc(Cl)cc34)cc2)c1C (stereo not shown) [Compound 257] |  | 460 nM | 
CCCC(=O)c1cnn(-c2ccc(NC(=O)c3cn(CC(=O)N4CCN(CC(=O)N5CCCC5)CC4)c4ccc(Cl)cc34)nn2)c1C [Compound 46] |  | 40 nM | 
CCCC(=O)c1cnn(-c2ccc(NC(=O)c3cn(CC(=O)NCc4cc(C)no4)c4ccc(Cl)cc34)nn2)c1C [Compound 96] |  | 930 nM | 
CCCC(=O)c1cnn(-c2ccc(NC(=O)c3cn(CC(=O)N4CC5CN(C)CC5C4)c4ccc(C)cc34)cc2)c1C (stereo not shown) [Compound 266] |  | 400 nM | 
CCCC(=O)c1cnn(-c2ccc(NC(=O)c3cn(CC(=O)N4CCC(O)C4)c4ccc(Cl)cc34)nn2)c1C (racemic) [Compound 49] |  | 220 nM | 
CCCC(=O)c1cnn(-c2ccc(NC(=O)c3cn(CC(=O)N4CC5CCCCN5CC4C)c4ccc(Cl)cc34)nn2)c1C (stereo not shown) [Compound 89] |  | 170 nM | 
CCCC(=O)c1cnn(-c2ccc(NC(=O)c3cn(CC(=O)NCCn4cccc4)c4ccc(Cl)cc34)nn2)c1C [Compound 58] |  | 450 nM | 
CCCC(=O)c1cnn(-c2ccc(NC(=O)c3cn(CC(=O)N4CCN(C)C(C)C4)c4ccc(Cl)cc34)nn2)c1C (stereo not shown) [Compound 77] |  | 90 nM | 
CCCC(=O)c1cnn(-c2ccc(NC(=O)c3cn(CC(=O)N4CC5CCCN5CC4C)c4ccc(Cl)cc34)nn2)c1C (stereo not shown) [Compound 88] |  | 90 nM | 
CCCC(=O)c1cnn(-c2ccc(NC(=O)c3cn(CC(=O)NCC(C)(C)N(C)C)c4ccc(Cl)cc34)nn2)c1C [Compound 83] |  | 330 nM | 
